Experiments:
mGluR5 = target: T1, mGluR5 (Rattus norvegicus, UniProt P31424); assay: mGluR5 binding assay ([3H]-MPEP radioligand competition); conditions: competition with 3 nM [3H]-MPEP, rat brain cortical membranes, 1 h at 4 °C; mean of at least three independent experiments in duplicate
T1 construct: tissue Charles River Laboratories; host or cells: rat brain cortex membranes (Sprague-Dawley)
Summary of the method: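 Rat cortical membranes (50 μg) were incubated 1 h at 4 °C with 3 nM [3H]-MPEP and compound (0.003 nM-30 μM, 8 points) in HEPES buffer pH 7.4 with Mg2+, Ca2+ and NaCl. 30 μM MPEP defined non-specific binding, and bound label was counted after filtration. IC50 came from non-linear regression, as the mean of ≥3 experiments run in duplicate.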

T1 sequence (P31424 21-1203): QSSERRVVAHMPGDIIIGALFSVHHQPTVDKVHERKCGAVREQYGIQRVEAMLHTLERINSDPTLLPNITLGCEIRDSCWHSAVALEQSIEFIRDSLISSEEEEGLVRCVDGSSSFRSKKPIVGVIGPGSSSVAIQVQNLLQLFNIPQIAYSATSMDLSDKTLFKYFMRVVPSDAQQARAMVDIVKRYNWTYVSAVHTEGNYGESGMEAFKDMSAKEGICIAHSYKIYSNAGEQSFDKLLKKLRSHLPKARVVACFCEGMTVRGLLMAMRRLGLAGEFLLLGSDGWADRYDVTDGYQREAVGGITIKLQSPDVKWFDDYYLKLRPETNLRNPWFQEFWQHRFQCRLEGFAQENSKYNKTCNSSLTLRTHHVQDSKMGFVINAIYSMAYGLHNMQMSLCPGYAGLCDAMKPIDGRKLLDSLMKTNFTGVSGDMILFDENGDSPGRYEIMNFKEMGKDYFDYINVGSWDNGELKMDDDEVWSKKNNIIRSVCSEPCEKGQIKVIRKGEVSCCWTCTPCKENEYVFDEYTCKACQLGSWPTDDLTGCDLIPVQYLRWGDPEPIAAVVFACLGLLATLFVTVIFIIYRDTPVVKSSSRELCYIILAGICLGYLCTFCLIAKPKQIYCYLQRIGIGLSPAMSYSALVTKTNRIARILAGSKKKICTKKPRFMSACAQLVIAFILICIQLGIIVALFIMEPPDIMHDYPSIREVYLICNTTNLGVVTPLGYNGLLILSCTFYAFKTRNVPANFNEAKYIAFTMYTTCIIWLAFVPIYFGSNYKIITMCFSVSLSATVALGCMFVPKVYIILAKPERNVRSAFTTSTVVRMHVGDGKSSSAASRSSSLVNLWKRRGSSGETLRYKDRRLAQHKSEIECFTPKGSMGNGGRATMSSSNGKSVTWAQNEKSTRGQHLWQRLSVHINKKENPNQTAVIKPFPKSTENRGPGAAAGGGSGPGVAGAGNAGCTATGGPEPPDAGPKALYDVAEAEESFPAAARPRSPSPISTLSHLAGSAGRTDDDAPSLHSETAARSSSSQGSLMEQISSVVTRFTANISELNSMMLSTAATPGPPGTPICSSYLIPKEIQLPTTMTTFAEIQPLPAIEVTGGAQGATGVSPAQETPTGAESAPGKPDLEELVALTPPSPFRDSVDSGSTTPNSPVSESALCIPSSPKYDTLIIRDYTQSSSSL

SMILES | IC50 (mGluR5) | melting point
Cc1ccc(Cl)cc1-c1noc(CCC#Cc2ccccn2)n1 [Example 60, 2-(4-(3-(5-Chloro-2-methylphenyl)-1,2,4-oxadiazol-5-yl)but-1-ynyl)pyridine] | < 10 µM | 66 to 68 °C
Fc1cc(F)c2oc(CCC#Cc3ccccn3)nc2c1 [Example 89, 5,7-Difluoro-2-(4-(pyridin-2-yl)but-3-ynyl)benzo[d]oxazole] | < 0.05 µM | 93.5 to 94 °C
N#Cc1cccc2nc(CCC#Cc3ccccn3)oc12 [Example 92, 2-(4-(Pyridin-2-yl)but-3-ynyl)benzo[d]oxazole-7-carbonitrile] | < 0.05 µM | 126 to 126.5 °C
FCc1cccc(C#CCCc2ccc3ccccc3n2)n1 [Example 126, 2-(4-(6-(Fluoromethyl)pyridin-2-yl)but-3-ynyl)quinoline] | < 0.05 µM | 70.2 to 74.3 °C
FCc1cccc(C#CCCc2cnc3ccccc3n2)n1 [Example 129, 2-(4-(6-(Fluoromethyl)pyridin-2-yl)but-3-ynyl)quinoxaline] | < 0.05 µM | 136 °C (dec.)
Cl.FCc1cccc(C#CCCn2nc3ccc(F)c(F)c3n2)n1 [Example 132, 4,5-Difluoro-2-(4-(6-(fluoromethyl)pyridin-2-yl)but-3-ynyl)-2H-benzo[d][1,2,3]triazole hydrochloride] | < 0.05 µM | 157 to 159 °C
FCc1cccc(C#CCCc2cnc3cc(F)c(F)cc3n2)n1 [Example 148, 6,7-Difluoro-2-(4-(6-(fluoromethyl)pyridin-2-yl)but-3-ynyl)quinoxaline] | < 10 µM | 134.9 to 138.5 °C
FCc1cccc(C#CCCn2nc3cc(F)c(F)cc3n2)n1 [Example 154, 5,6-Difluoro-2-(4-(6-(fluoromethyl)pyridin-2-yl)but-3-ynyl)-2H-benzo[d][1,2,3]triazole] | < 10 µM | 104 to 105 °C
CNc1cccc(C#CCCn2nc3ccccc3n2)n1 [Example 167, 6-(4-(2H-Benzo[d][1,2,3]triazol-2-yl)but-1-ynyl)-N-methylpyridin-2-amine] | < 0.5 µM | 150 to 154 °C
CC(=O)Nc1cccc(C#CCCn2nc3ccccc3n2)n1 [Example 169, N-(6-(4-(2H-Benzo[d][1,2,3]triazol-2-yl)but-1-ynyl)pyridin-2-yl)acetamide] | < 10 µM | 93 to 94 °C
CCNc1cccc(C#CCCn2nc3ccccc3n2)n1 [Example 170, 6-(4-(2H-Benzo[d][1,2,3]triazol-2-yl)but-1-ynyl)-N-ethylpyridin-2-amine] | < 10 µM | 73 to 78 °C
Fc1ccc(-c2cn(CCC#Cc3ccccn3)nn2)cc1 [Example 179, 2-(4-(4-(4-Fluorophenyl)-1H-1,2,3-triazol-1-yl)but-1-ynyl)pyridine] | < 0.5 µM | 120 to 122 °C
O=c1c2ccccc2ccn1CCC#Cc1ccccn1 [Example 183, 2-(4-(Pyridin-2-yl)but-3-ynyl)isoquinolin-1(2H)-one] | < 0.5 µM | 85 to 90 °C
O=C(CCC#Cc1ccccn1)Nc1ccccc1F [Example 186, N-(2-Fluorophenyl)-5-(pyridin-2-yl)pent-4-ynamide] | < 10 µM | 82 to 84 °C
O=C(CCC#Cc1ccccn1)Nc1cccc(F)c1 [Example 187, N-(3-Fluorophenyl)-5-(pyridin-2-yl)pent-4-ynamide] | < 10 µM | 110 to 114 °C
Cn1c(CCC#Cc2cccc(CF)n2)nc2ccccc21 [Example 190, 2-(4-(6-(Fluoromethyl)pyridin-2-yl)but-3-ynyl)-1-methyl-1H-benzo[d]imidazole] | < 0.5 µM | 95.3 to 96.3 °C
FCc1cccc(C#CCCc2cn3cc(F)ccc3n2)n1 [Example 223, 6-Fluoro-2-(4-(6-(fluoromethyl)pyridin-2-yl)but-3-ynyl)H-imidazo[1,2-a]pyridine] | < 0.5 µM | 140 to 141.8 °C
Fc1cccnc1C#CCCc1nc2ccccc2o1 [Example 230] | < 10 µM | 86 to 88 °C
O=C(CCC#Cc1cccc(CF)n1)Nc1ccc(F)cc1 [Example 232, 5-(6-(Fluoromethyl)pyridin-2-yl)-N-(4-fluorophenyl)pent-4-ynamide] | < 10 µM | 110 °C
Cc1nc(C#CCCc2nc3ccccc3o2)cn1C [Example 233, 2-(4-(1,2-Dimethyl-1H-imidazol-4-yl)but-3-ynyl)benzo[d]oxazole] | < 10 µM | 117 to 119 °C
FCc1cccc(C#CCCc2nc3ccccc3s2)n1 [Example 241, 2-(4-(6-(Fluoromethyl)pyridin-2-yl)but-3-ynyl)benzo[d]thiazole] | < 0.05 µM | 74 to 76 °C
O=C1c2ccccc2C(=O)N1CCCC#Cc1ccccn1 [Example 242, 2-(5-(Pyridin-2-yl)pent-4-ynyl)isoindoline-1,3-dione] | < 10 µM | 127 to 129 °C
O=C(CCC#Cc1ccccn1)Nc1ccc(Cl)cc1 [Example 244, N-(4-Chlorophenyl)-5-(pyridin-2-yl)pent-4-ynamide] | < 10 µM | 110 to 111 °C
Fc1ccc(-c2cnn(CCC#Cc3ccccn3)n2)cc1 [Example 249, 2-(4-(4-(4-Fluorophenyl)-2H-1,2,3-triazol-2-yl)but-1-ynyl)pyridine] | < 10 µM | 83.5 to 84.5 °C

Other lines, results leading:

IC50 (mGluR5) | melting point | SMILES
< 10 µM | 90 to 91 °C | Cc1ccc(F)cc1-c1noc(CCC#Cc2ccccn2)n1 [Example 59, 2-(4-(3-(5-Fluoro-2-methylphenyl)-1,2,4-oxadiazol-5-yl)but-1-ynyl)pyridine]
< 0.05 µM | 89 to 89.5 °C | Fc1cccc2oc(CCC#Cc3ccccn3)nc12 [Example 90, 4-Fluoro-2-(4-(pyridin-2-yl)but-3-ynyl)benzo[d]oxazole]
< 0.05 µM | 102 to 103 °C | Fc1ccc(Cl)c2oc(CCC#Cc3ccccn3)nc12 [Example 93, 7-Chloro-4-fluoro-2-(4-(pyridin-2-yl)but-3-ynyl)benzo[d]oxazole]
< 10 µM | 106 to 107 °C | O=c1n(CCC#Cc2cccc(CF)n2)nc2ccccn12 [Example 120, 2-(4-(6-(Fluoromethyl)pyridin-2-yl)but-3-ynyl)-[1,2,4]triazolo[4,3-a]pyridin-3(2H)-one]
< 0.05 µM | 128 to 130 °C | Cl.FCc1cccc(C#CCCn2nc3cc(F)cc(F)c3n2)n1 [Example 131, 4,6-Difluoro-2-(4-(6-(fluoromethyl)pyridin-2-yl)but-3-ynyl)-2H-benzo[d][1,2,3]triazole hydrochloride]
< 10 µM | 101.8 to 102.9 °C | FC(F)c1cccc(C#CCCn2nc3ccccc3n2)n1 [Example 134, 2-(4-(6-(Difluoromethyl)pyridin-2-yl)but-3-ynyl)-2H-benzo[d][1,2,3]triazole]
< 10 µM | 131 to 132 °C | Fc1cc2nn(CCC#Cc3ccccn3)nc2cc1F [Example 153, 5,6-Difluoro-2-(4-(pyridin-2-yl)but-3-ynyl)-2H-benzo[d][1,2,3]triazole]
< 10 µM | 83 to 84 °C | Fc1ccc(-c2cc(CCC#Cc3ccccn3)on2)cc1 [Example 168, 2-(4-(3-(4-Fluorophenyl)isoxazol-5-yl)but-1-ynyl)pyridine]
< 10 µM | 110 to 114 °C | Cc1cc(F)ccc1NC(=O)CCC#Cc1ccccn1 [Example 188, N-(4-Fluoro-2-methyl-phenyl)-5-(pyridin-2-yl)pent-4-ynamide]
< 0.5 µM | 103 to 104 °C | Cn1c(CCC#Cc2cccc(CF)n2)nc2c(F)cc(F)cc21 [Example 193, 4,6-Difluoro-2-(4-(6-(fluoromethyl)pyridin-2-yl)but-3-ynyl)-1-methyl-1H-benzo[d]imidazole]
< 10 µM | 96 to 98 °C | Cc1nc(C#CCCn2nc3ccccc3n2)sc1C [Example 222, 2-(4-(4,5-Dimethylthiazol-2-yl)but-3-ynyl)-2H-benzo[d][1,2,3]triazole]
< 0.05 µM | 82 to 84 °C | FCc1nc(C#CCCc2cn3cc(F)ccc3n2)cs1 [Example 224, 6-Fluoro-2-(4-(2-(fluoromethyl)thiazol-4-yl)but-3-ynyl)-imidazo[1,2-a]pyridine]
< 10 µM | 92 to 94 °C | FCc1cccc(C#CCCc2cn3cccc(OCc4ccccc4)c3n2)n1 [Example 226, 8-(Benzyloxy)-2-(4-(6-(fluoromethyl)pyridin-2-yl)but-3-ynyl)-imidazo[1,2-a]pyridine]
< 0.05 µM | 130 to 131 °C | Fc1cc(F)c2nc(CCC#Cc3ccccn3)cn2c1 [Example 228, 6,8-Difluoro-2-(4-(pyridin-2-yl)but-3-ynyl)-imidazo[1,2-a]pyridine]
< 10 µM | 152 to 154 °C | Cc1nc(C#CCCc2nc3ccccc3o2)c[nH]1 [Example 231, 2-(4-(2-Methyl-1H-imidazol-4-yl)but-3-ynyl)benzo[d]oxazole]
< 10 µM | 94 to 98 °C | O=C1c2ccccc2CN1CCC#Cc1ccccn1 [Example 234, 2-(4-(Pyridin-2-yl)but-3-ynyl)isoindolin-1-one]
< 10 µM | 167.8 to 168.8 °C | O=C(CCC#Cc1ccccn1)Nc1cccc(Cl)c1 [Example 245, N-(3-Chlorophenyl)-5-(pyridin-2-yl)pent-4-ynamide]
< 10 µM | 132 to 133.2 °C | O=C(CCC#Cc1ccccn1)Nc1ccc(F)cc1F [Example 246, N-(2,4-Difluorophenyl)-5-(pyridin-2-yl)pent-4-ynamide]

From patent US8883826B2, “Alkynyl derivatives as modulators of metabotropic glutamate receptors” (Addex Pharma SA, priority 2004, dated 2014)
